Results reported in ChEMBL document CHEMBL4806968, “Hipk inhibitors and methods of use thereof” (2020).
pIC50: −log10 of the molar value.

How the values were obtained:
[1] = biological target: T1, Homeodomain-interacting protein kinase 4 (Homo sapiens, UniProt Q8NE63); experiment: Inhibition of HIPK4 (unknown origin)
T1 sequence (Q8NE63 whole entry): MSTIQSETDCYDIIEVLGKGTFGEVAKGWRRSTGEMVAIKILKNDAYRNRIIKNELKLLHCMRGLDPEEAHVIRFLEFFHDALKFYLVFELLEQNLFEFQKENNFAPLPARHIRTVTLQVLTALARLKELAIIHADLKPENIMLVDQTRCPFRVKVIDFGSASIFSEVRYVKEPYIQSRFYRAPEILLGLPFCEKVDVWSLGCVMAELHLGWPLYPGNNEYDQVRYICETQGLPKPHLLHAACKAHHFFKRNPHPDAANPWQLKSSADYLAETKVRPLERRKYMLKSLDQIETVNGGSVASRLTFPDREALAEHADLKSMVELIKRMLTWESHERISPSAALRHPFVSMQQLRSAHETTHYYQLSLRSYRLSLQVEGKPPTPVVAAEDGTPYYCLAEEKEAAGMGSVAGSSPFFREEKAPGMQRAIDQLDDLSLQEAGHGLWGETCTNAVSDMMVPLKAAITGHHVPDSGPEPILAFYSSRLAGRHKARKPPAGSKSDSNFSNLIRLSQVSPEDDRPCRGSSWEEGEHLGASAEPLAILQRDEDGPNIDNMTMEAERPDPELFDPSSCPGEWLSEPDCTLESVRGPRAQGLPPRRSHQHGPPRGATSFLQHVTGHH

[2] = biological target: Serine/threonine-protein kinase 10 (Homo sapiens) (UniProt O94804); experiment: Inhibition of LOK (unknown origin) at 0.5 uM relative to control
Serine/threonine-protein kinase 10 (Homo sapiens), sequence (O94804 whole entry, looked up): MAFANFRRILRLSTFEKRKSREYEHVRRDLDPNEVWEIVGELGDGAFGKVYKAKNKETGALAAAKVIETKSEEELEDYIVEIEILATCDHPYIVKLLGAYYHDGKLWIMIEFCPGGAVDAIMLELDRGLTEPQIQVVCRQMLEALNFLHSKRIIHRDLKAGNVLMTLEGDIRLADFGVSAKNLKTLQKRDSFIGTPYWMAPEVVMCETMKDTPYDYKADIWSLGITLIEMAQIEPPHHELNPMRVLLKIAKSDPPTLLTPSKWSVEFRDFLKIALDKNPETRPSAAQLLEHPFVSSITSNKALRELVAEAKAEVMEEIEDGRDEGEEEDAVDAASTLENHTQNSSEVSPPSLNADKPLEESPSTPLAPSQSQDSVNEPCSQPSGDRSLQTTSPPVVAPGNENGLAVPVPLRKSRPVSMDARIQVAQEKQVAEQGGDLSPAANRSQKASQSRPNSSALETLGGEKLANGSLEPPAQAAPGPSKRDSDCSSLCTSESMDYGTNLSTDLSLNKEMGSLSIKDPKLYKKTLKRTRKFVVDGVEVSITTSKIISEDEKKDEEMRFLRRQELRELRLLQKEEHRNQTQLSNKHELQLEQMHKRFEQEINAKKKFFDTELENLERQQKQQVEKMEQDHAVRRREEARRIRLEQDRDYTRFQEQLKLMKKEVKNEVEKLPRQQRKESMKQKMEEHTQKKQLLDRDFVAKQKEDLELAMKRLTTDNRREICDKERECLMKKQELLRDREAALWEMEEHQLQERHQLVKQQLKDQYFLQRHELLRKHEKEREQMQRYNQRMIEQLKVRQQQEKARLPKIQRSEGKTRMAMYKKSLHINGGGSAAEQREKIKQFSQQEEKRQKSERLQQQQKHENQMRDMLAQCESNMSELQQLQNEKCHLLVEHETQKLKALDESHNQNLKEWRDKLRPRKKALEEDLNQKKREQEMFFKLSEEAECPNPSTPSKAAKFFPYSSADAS

[3] = biological target: Tyrosine-protein kinase Lck (Homo sapiens) (UniProt P06239); experiment: Inhibition of LCK (unknown origin) at 0.5 uM relative to control
Tyrosine-protein kinase Lck (Homo sapiens), sequence (P06239 2-509 limits assumed): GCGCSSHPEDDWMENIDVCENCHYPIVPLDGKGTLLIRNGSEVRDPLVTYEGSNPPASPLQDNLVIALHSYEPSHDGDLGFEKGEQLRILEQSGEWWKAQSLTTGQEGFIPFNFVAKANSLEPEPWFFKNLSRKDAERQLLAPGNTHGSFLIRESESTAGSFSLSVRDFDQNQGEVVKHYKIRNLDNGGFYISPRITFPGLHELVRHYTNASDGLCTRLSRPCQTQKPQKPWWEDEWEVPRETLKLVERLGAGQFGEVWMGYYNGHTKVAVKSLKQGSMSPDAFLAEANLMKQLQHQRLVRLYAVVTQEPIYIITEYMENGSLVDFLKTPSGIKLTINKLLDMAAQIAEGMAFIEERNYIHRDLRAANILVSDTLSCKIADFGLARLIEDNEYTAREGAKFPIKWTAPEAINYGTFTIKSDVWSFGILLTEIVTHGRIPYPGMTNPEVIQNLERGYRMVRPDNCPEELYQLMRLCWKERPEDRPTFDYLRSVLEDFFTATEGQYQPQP

[4] = biological target: T2, Muscle, skeletal receptor tyrosine-protein kinase (Homo sapiens) (UniProt O15146); experiment: Inhibition of MUSK (unknown origin) at 0.5 uM relative to control
T2 sequence (whole entry): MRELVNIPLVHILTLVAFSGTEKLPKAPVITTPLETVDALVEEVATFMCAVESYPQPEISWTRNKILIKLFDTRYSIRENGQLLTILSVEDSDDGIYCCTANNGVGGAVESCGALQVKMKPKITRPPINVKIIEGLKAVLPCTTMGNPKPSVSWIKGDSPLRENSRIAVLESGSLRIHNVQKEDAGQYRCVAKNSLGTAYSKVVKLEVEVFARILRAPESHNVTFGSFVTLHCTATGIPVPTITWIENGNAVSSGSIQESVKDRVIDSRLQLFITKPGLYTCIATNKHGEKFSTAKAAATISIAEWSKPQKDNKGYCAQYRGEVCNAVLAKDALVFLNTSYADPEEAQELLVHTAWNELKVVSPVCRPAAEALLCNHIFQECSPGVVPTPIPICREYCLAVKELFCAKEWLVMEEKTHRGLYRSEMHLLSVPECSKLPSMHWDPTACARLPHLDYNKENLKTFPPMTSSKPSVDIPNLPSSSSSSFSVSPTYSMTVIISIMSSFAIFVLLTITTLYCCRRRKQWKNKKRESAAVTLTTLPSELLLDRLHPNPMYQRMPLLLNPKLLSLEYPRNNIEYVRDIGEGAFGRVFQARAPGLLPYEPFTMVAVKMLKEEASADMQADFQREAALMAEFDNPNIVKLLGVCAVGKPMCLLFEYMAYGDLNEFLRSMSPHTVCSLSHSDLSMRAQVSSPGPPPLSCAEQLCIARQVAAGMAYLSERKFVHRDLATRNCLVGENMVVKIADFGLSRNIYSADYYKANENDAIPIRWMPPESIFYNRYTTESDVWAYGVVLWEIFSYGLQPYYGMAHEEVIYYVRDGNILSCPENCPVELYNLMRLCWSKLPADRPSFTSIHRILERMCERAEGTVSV

[5] = biological target: T3, Ephrin type-A receptor 6 (Homo sapiens) (UniProt Q9UF33); experiment: Inhibition of EPHA6 (unknown origin) at 0.5 uM relative to control
T3 sequence (whole entry): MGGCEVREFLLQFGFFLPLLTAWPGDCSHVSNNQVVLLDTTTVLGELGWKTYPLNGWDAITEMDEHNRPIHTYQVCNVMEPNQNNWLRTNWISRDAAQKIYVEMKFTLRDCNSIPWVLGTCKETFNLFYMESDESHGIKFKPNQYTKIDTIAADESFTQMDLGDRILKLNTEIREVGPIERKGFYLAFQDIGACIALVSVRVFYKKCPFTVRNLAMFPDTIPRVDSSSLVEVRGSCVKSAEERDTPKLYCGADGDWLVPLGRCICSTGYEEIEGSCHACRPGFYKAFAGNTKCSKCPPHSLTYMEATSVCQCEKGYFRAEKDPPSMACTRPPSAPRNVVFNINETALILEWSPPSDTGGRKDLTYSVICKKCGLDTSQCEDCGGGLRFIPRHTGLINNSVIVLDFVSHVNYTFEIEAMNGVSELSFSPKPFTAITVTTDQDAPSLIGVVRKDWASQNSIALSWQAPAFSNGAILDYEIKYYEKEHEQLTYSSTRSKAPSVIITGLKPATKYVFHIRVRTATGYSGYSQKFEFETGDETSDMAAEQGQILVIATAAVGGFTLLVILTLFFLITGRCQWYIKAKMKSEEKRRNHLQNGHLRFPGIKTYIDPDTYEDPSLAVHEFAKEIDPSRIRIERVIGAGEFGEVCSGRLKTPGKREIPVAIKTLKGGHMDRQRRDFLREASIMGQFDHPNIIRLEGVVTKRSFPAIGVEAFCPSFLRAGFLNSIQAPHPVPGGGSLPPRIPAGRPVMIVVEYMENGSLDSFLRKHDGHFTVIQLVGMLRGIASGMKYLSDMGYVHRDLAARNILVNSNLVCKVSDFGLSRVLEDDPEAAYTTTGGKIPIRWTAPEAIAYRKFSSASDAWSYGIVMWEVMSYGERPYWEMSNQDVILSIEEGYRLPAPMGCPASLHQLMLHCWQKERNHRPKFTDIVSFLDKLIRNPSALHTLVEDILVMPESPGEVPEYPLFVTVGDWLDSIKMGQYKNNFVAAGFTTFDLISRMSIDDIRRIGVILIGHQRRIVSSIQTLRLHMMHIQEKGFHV

[6] = biological target: Receptor-type tyrosine-protein kinase FLT3 (Homo sapiens) (UniProt P36888); experiment: Inhibition of FLT3 (unknown origin) at 0.5 uM relative to control
Receptor-type tyrosine-protein kinase FLT3 (Homo sapiens), sequence (P36888 whole entry): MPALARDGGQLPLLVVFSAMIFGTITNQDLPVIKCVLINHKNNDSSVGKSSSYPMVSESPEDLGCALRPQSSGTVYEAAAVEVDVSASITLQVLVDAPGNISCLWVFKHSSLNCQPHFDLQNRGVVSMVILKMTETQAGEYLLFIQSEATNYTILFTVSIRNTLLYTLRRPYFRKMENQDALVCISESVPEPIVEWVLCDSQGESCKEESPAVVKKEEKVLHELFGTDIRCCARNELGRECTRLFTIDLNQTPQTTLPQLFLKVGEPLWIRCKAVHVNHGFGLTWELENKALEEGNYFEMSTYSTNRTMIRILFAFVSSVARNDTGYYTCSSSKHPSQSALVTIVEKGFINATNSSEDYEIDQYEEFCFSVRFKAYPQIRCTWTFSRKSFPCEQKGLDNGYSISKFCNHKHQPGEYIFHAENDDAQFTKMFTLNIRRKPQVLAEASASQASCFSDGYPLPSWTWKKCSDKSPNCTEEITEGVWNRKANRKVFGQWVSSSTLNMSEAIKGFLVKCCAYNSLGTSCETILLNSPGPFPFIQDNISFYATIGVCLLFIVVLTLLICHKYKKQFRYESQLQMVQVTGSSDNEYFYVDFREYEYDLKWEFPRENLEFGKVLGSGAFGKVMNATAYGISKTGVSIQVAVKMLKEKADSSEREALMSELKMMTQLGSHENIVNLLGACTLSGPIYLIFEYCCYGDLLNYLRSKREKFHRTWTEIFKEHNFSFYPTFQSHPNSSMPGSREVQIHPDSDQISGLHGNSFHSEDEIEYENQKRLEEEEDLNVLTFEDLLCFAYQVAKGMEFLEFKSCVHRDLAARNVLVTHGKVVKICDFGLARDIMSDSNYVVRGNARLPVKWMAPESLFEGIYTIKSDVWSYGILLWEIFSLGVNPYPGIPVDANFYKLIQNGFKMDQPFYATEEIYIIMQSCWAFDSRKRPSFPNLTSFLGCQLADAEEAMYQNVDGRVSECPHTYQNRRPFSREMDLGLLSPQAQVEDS

| SMILES | pIC50 [1] | inhibition [2] [%] | inhibition [3] [%] | inhibition [4] [%] | inhibition [5] [%] | inhibition [6] [%] |
| --- | --- | --- | --- | --- | --- | --- |
| CNC(=O)c1cc(Oc2ccc(NC(=O)c3nc(SC)[nH]c3-c3ccc(F)cc3)cc2)ccn1 | 7.72 | 93 | 84 | 97 | – | – |
| CSc1nc(C(=O)Nc2ccc(Oc3cc4cnn(C)c4cc3Br)cc2)c(-c2ccc(F)cc2)o1 | 7.49 | 36 | – | – | 19 | 27 |
| CNC(=O)c1cc(Oc2ccc(NC(=O)c3nc(NC)sc3-c3ccc(F)cc3)cc2)ccn1 | 8.28 | 50 | 49 | 51 | 62 | – |
| CNC(=O)c1cc(Oc2ccc(NC(=O)c3nc(SC)oc3-c3ccc(F)cc3)cc2)ccn1 | 8.48 | 66 | 77 | – | 69 | – |
| CNC(=O)c1cc(Oc2ccc(NC(=O)c3nc(C(F)(F)F)sc3-c3ccc(F)cc3)cc2)ccn1 | 8.02 | 58 | 58 | 34 | 67 | 39 |
| CNC(=O)c1cc(Oc2ccc(NC(=O)c3nc(S(C)(=O)=O)sc3-c3ccc(F)cc3)cc2)ccn1 | 8.29 | – | – | 70 | – | 56 |
| CNC(=O)c1cc(Oc2ccc(NC(=O)c3nc(SC)n(CCN(C)C)c3-c3ccc(F)cc3)cc2)ccn1 | 7.64 | 47 | 28 | 29 | 58 | 50 |
| CNC(=O)c1cc(Oc2ccc(NC(=O)c3nc(SC)oc3-c3ccc(F)cc3)cc2F)ccn1 | 8.55 | 55 | 71 | – | 69 | 36 |
| CNC(=O)c1cc(Oc2ccc(NC(=O)c3n[nH]nc3-c3ccc(F)cc3)cc2)ccn1 | 7.31 | 26 | – | 25 | 27 | 44 |
